# Test results taken from patent US20150241410A1, “INHIBITORS OF CENTRAL NERVOUS SYSTEM VASOACTIVE INHIBITORY PEPTIDE RECEPTOR 2” (The Trustees Of Columbia University In The City Of New York, priority 2012, published 2015).
# “Also recorded” adds a separate entry of the source.
# Legend:
# Assay type in all cases: cell-based
# VIPR2 [1] = target: T1, VIPR2 (Homo sapiens, UniProt P41587); test: BRET-based VIPR2 activation assay (CAMYEL cAMP sensor, CHO cells, VIP background); settings: for IC50: Table 3, read-out: IC50 (from BRET)
# T1 construct: expressed in transfected cells
# T1 sequence (P41587 24-438): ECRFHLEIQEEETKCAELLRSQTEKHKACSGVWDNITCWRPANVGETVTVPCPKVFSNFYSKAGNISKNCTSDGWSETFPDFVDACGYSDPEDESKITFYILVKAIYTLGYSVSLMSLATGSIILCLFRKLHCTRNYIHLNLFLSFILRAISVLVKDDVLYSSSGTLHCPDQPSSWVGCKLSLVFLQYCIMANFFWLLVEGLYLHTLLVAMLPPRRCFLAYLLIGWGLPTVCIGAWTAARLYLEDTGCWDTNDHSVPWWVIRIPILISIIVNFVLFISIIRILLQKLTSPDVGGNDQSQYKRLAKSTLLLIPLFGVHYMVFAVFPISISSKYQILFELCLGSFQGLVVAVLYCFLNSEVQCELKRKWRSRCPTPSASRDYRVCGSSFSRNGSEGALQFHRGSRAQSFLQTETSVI
# Protocol: FIG. 5A-B. Results of BRET-based VIPR2 activation assays in cells expressing both the VIPR2 receptor and CAMYEL (see FIG. 1A for schematic). a) Inhibitory dose-response curves on treatment of CHO cells with increasing concentrations of a batch of antagonists against a background of VIP activation (VIP=5 nM).
# In such a system, a detector cell is used which expresses both the VIPR2 receptor and “CAMYEL,” a YFP-Epac-RLuc8 BRET sensor construct. This construct includes Epac1, a guanine nucleotide exchange factor activated by direct binding of cAMP, fused with an enhanced YFP and Renilla luciferase 8 (Rluc8) allowing BRET upon cAMP-induced conformational changes (Jiang et al., 2007, J Biol Chem. 282:10576-10584). In response to elevated cAMP levels, there is a conformational change in Epac and therefore a change in the proximity of the fused chromophores, Rluc8 and YFP, resulting in measurable energy transfer. Coexpression of this BRET construct with VIPR2. optionally tagged at the N-terminus with a signal peptide and FLAG epitope (SF-VIPR2), for example in HEK293 cells, allows for detection of a VIPR2-specific response to cAMP. BRET readout may be calculated by quantifying the ratio of the light emitted by the acceptor, YFP (λ=525 nm), over the emission from the donor, RLuc8 (λ=485 nm). The proximity of the donor and acceptor, and therefore the BRET ratio, decreases in the presence of cAMP. In non-limiting specific embodiments, a stable cell line may be generated for this assay using the Flp-In T-Rex system in HEK293 cells. This system allows site-specific single copy integration of the gene of interest and control of expression levels using the Tet-repressor site making receptor expression tetracycline-inducible. For example, a CAMYEL and VIPR2 expressing line may be induced with 0.01 μg/ml tetracycline, then, 24 hours later cells may be collected and distributed into 96-well plates. After treatment with candidate inhibitor compound, for example at 5, 1 and 0.5 μM concentrations, cells may be incubated with the light emitting luciferin, coelenterazine H, for 5 min and incubated for 5 min with VIP at increasing concentrations, for example ranging from 100 pM to 10 μM. The fluorescence and luminescence may then be quantified, for example using a PHERAstar (BMG) plate reader. […] Alternatively, analogous experiments may be performed using human cells harvested from a patient having a VIPR2 copy number variation, for example (but not by way of limitation) pluripotent stem cells prepared from such a patient and then transfected with a CAMYEL construct.
# (§1) A series of compounds were prepared using a synthetic method analogous to that set forth in Scheme 1, above, and then tested for their ability to inhibit VIP-induced cAMP elevation and β-arrestin recruitment, as described herein (Discoverx Corporation, Fremont, Calif., US). Compound activities were also tested in a BRET-based assay, as described herein. The results are shown below in Tables 1-4, above.
# Numerous cellular assays were developed that were able to detect VIP responses absent of interference from non-specific vasopressin receptors using this CHO based system. VIPR2 is a Gs coupled receptor. Activation of VIPR2 by VIP leads to both an elevation in cAMP signaling and the recruitment of β-arrestin. A variety of combinations can be transiently transfect into these CHO cells for the assessment of cellular responses to VIP. For the BRET readout CHO cell lines expressing an YFP-Epac-RLuc8 (CAMYEL) BRET sensor were used to detect changes in cAMP. This construct includes Epac1, a guanine nucleotide exchange factor activated by direct binding of cAMP, fused to an enhanced YFP and RLuc8 allowing a change in BRET upon cAMP-induced conformational changes. The key for medium to high throughput screening assays is the use of stable cell lines allowing the continuous assaying of multiple compounds with the ability to generate large numbers of cells for rapid use. […]
# VIPR2 [2] = target: T1, VIPR2; test: Inhibition of VIP-induced cAMP elevation (% Activity)
# Text: In a further non-limiting embodiment of the invention, the ability of a compound to inhibit VIPR2 and […] may be measured using a Homogeneous Time-Resolved Fluorescence (“HTRF® assay; Cisbio Bioassays) as used in Chu et al., 2010, Molecular Pharmacol. 7795-101. In a method as used in Chu et al., 2010, Molecular Pharmacol. 7795-101, HEK293 cells may be transfected with nucleic acid encoding VIPR2, for example human VIPR2 (“hVIPR2”), for example comprised in a vector such as pCDNA3.1 vector. Successful transformnnants may then be selected, for example using 800 μg/ml G418. Clonal stable cell lines may then be generated by limited dilution to single cells and then may be clonally expanded and tested for VIP-dependent cAMP response. For the cAMP assay, about 3000-15,000 cells (in about 4-25 μl) may be placed in a well of an assay plate. The next day, inhibitor or test inhibitor and VIP may be added in a volume about 1-2 percent of the initial volume. Assay plates may then be returned to a cell incubator for 30 min before addition of a one-half volume of cAMP conjugate and, relative to the amount of cAMP conjugate, an equal volume of anti-cAMP conjugate (Cisbio). After at least 1 h of room-temperature incubation, HTRF signal may be read, for example using Viewlux or EnVision (PerkinElmer Life and Analytical Sciences, Waltham, Mass.). The ratio of […] at 665 nm and 620 nm times 10,000 may be calculated and plotted.
# (§2) A series of compounds were prepared using a synthetic method analogous to that set forth in Scheme 1, above, and then tested for their ability to inhibit VIP-induced cAMP elevation and β-arrestin recruitment.
# as §1
# VIPR2 [3] = target: T1, VIPR2; test: Inhibition of VIP-induced β-arrestin recruitment (% Activity)
# Text: In a further non-limiting embodiment of the invention, the ability of a compound to inhibit VIPR2 GPCR activity may be tested, for example, using the PathHunter® eXpress 3-Arrestin GPCR system (Discoverx Corporation, Fremont, Calif., US), as used by Chu et al., 2010, Molecular Pharmacol. 7795-101. In this assay, J-Arrestin is fused to the “Enzyme Acceptor” (“EA”), an N-terminal deletion mutant of β-gal, and the GPCR of interest is fused to a smaller (42 amino acids), weakly complementing portion of the β-gal enzyme (termed “ProLink™”). In cells that stably express these fusion proteins, the interaction of β-Arrestin and the GPCR following ligand stimulation forces the complementation of the two β-gal fragments resulting in the formation of a functional enzyme that converts substrate to detectable signal. In the absence of an interaction between the GPCR and β-Arrestin, the enzyme activity is low due to the low affinity of the two enzyme fragments. For example, a nucleic acid encoding VIPR2, for example hVIPR2, may be cloned into the ProLink vector (DiscoveRx) for GPCR-ProLink fusion protein production. Parental HEK293 cells that stably express β-arrestin2-β-gal-EA fusion protein (DiscoveRx) may be detached and transiently transfected with the VIPR2-containing vector using Fugene6 transfection reagent in suspension mode. Transfected cells in assay medium may be plated into test plates, for example at 15,000 cells/25 μl/well. After overnight incubation, 500 n1 of an inhibitor or test inhibitor may be introduced into the test plate followed by 2 h incubation at 37° C., 5% CO2. Flash detection reagents may be added at 12.5 μl/well. After 5 min to 1 h of room-temperature incubation, the cell plates may be read on CLIPR (PerkinElmer Life and Analytical Sciences) or Acquest (Molecular Devices, Sunnyvale, Calif.) for luminescence signal.
# as §2, §1
smiles,measurement,setting,value
CS(=O)(=O)c1ccc(S(=O)(=O)NC[C@@H](O)C[C@@H](Cc2ccccc2)C(=O)N[C@H]2c3ccccc3C[C@H]2O)cc1 [Compound X111],IC50,VIPR2 [1],13.3 µM
O=C([C@H](Cc1ccccc1)C[C@H](O)CNS(=O)(=O)c1ccc([N+](=O)[O-])cc1)N1CCOCC1 [Compound B9A],inhibition at 0.5 µM,VIPR2 [2]; Batch 2,3.8%
CCC(=O)Nc1ccc(S(=O)(=O)NC[C@@H](O)C[C@@H](Cc2ccccc2)C(=O)N[C@H]2c3ccccc3C[C@H]2O)cc1 [Compound X091],inhibition at 0.5 µM,VIPR2 [3]; Batch 3,3.4%
O=C(N[C@H]1c2ccccc2C[C@H]1O)[C@H](Cc1ccccc1)C[C@H](O)CNS(=O)(=O)c1ccc(C(=O)N2CCCCC2)cc1 [Compound X101],inhibition at 0.5 µM,VIPR2 [2]; Batch 3,-5.3%
"O=C(N[C@H]1c2ccccc2C[C@H]1O)[C@H](Cc1ccccc1)C[C@H](O)CNS(=O)(=O)c1ccc([N+](=O)[O-])cc1 [Compound 1, reference compound]",shift of VIP dose-response curve,VIPR2 [1]; increasing doses of compound (FIG. 1C),rightward shift
O=C(N[C@H]1c2ccccc2C[C@H]1O)[C@H](Cc1ccccc1)C[C@H](O)CNS(=O)(=O)c1ccc(C(F)(F)F)cc1 [F],"VIPR2 inhibition in BRET-based assay, in words","VIPR2 [1]; compared with Compound 1 or other compounds (FIG. 1C, FIG. 5B)",greater activity than Compound 1; also recorded: greater effect on VIPR2 inhibition than Compound 1
O=C([C@@H](Cc1ccccc1)C[C@H](O)CNS(=O)(=O)c1ccc([N+](=O)[O-])cc1)N1CCOCC1 [Compound B9B],inhibition at 1 µM,"VIPR2 [2]; 1 μM, Batch 2",-10.4%
COc1cc(C(=O)NC[C@@H](O)C[C@@H](Cc2ccccc2)C(=O)N[C@H]2c3ccccc3C[C@H]2O)cc(OC)c1OC [H],inhibition at 1 µM,"VIPR2 [3]; 1 μM, Batch 1",3.2%
O=C(N[C@H]1c2ccccc2C[C@H]1O)[C@H](Cc1ccccc1)C[C@H](O)CNS(=O)(=O)c1ccc(OC(F)(F)F)cc1 [Compound X112],IC50,VIPR2 [1],152 µM
CCC(C)Oc1ccc(S(=O)(=O)NC[C@@H](O)C[C@@H](Cc2ccccc2)C(=O)N[C@H]2c3ccccc3C[C@H]2O)cc1 (stereo partly shown) [Compound X120],IC50,VIPR2 [1],45.8 µM
Cc1ccc(S(=O)(=O)NC[C@@H](O)C[C@@H](Cc2ccccc2)C(=O)N[C@H]2c3ccccc3C[C@H]2O)cc1C [Compound X116],IC50,VIPR2 [1],13.3 µM
CCCc1ccc(S(=O)(=O)NC[C@@H](O)C[C@@H](Cc2ccccc2)C(=O)N[C@H]2c3ccccc3C[C@H]2O)cc1 [Compound X113],IC50,VIPR2 [1],4.2 µM
O=C([C@@H](Cc1ccccc1)C[C@H](O)CNS(=O)(=O)c1ccc([N+](=O)[O-])cc1)N1CCCCC1 [Compound B18B],inhibition at 0.5 µM,VIPR2 [3]; Batch 2,9.5%
O=C(NC1CCCc2ccccc21)[C@@H](Cc1ccccc1)C[C@H](O)CNS(=O)(=O)c1ccc([N+](=O)[O-])cc1 (stereo partly shown) [Compound B13B],% activity (β-arrestin recruitment) at 1 µM,"VIPR2 [3]; 1 μM, Batch 2",5.9%
CCCOc1ccc(S(=O)(=O)NC[C@@H](O)C[C@@H](Cc2ccccc2)C(=O)N[C@H]2c3ccccc3C[C@H]2O)cc1 [Compound X118],IC50,VIPR2 [1],4.2 µM
CCC(C)c1ccc(S(=O)(=O)NC[C@@H](O)C[C@@H](Cc2ccccc2)C(=O)N[C@H]2c3ccccc3C[C@H]2O)cc1 (stereo partly shown) [Compound X117],IC50,VIPR2 [1],152 µM
